Measured values: ChEMBL document CHEMBL1153334, “New cyclic peptide proteasome inhibitors” (Bioorg Med Chem Lett, 2009)

Columns and labels:
cells [1] = assay: cells
Description: Inhibition of caspase-like activity of 20S proteasome beta 1 subunit by cell based assay

[2] = Metabolic stability in human plasma assessed as half life after 360 mins; type: ADME, cell-free
cells [3] = assay: cells; remark: listed apart in the source
Description: Inhibition of trypsin-like activity of 20S proteasome beta 2 subunit by cell based assay

SMILES	IC50 (cells [1])	half-life [2]	IC50 (cells [3])
COC(=O)/C=C/[C@H](CC(C)C)NC(=O)CC[C@@H]1NC(=O)[C@H](CC(C)C)NC(=O)[C@H](CC(C)C)C(=O)NC(=O)[C@H](C(C)C)NC1=O	273 nM	> 6 h	–
COC(=O)/C=C/[C@H](CC(C)C)NC(=O)CC[C@H](NC(=O)[C@H](CC(C)C)NC(=O)[C@H](CC(C)C)C(=O)NC(=O)CN)C(N)=O	–	0.808 h	–
COC(=O)/C=C/[C@H](CC(C)C)NC(=O)CC[C@H](NC(=O)[C@H](CC(C)C)NC(=O)[C@H](CC(C)C)C(=O)NC(=O)[C@@H](N)CO)C(N)=O	–	1.43 h	–
COC(=O)/C=C/[C@H](CC(C)C)NC(=O)CC[C@@H]1NC(=O)[C@H](CC(C)C)NC(=O)[C@H](CC(C)C)C(=O)NC(=O)[C@H](C)NC1=O	123 nM	> 6 h	–
COC(=O)/C=C/[C@H](CC(C)C)NC(=O)CC[C@H](NC(=O)[C@H](CC(C)C)NC(=O)[C@H](CC(C)C)C(=O)NC(=O)[C@@H](N)C(C)C)C(N)=O	–	1.96 h	–
COC(=O)/C=C/[C@H](CC(C)C)NC(=O)CC[C@@H]1NC(=O)[C@H](CC(C)C)NC(=O)[C@H](CC(C)C)C(=O)NC(=O)CNC1=O	221 nM	> 6 h	5830 nM
COC(=O)/C=C/[C@H](CC(C)C)NC(=O)CC[C@@H]1NC(=O)[C@H](CC(C)C)NC(=O)[C@H](CC(C)C)C(=O)NC(=O)[C@H](CO)NC1=O	91 nM	> 6 h	6940 nM
COC(=O)/C=C/[C@H](CC(C)C)NC(=O)CC[C@H](NC(=O)[C@H](CC(C)C)NC(=O)[C@H](CC(C)C)C(=O)NC(=O)[C@H](C)N)C(N)=O	–	1.22 h	–
